Laboratory results from US8742110B2, “Spiroxazolidinone compounds” (Merck Sharp & Dohme Corp., priority 2010, dated 2014).
Counter-ions that a name gives are not always drawn.

target: SSTR5 (Homo sapiens (Human), UniProt P35346); experiment: SSTR5 binding assay; details: CHO-K1 membranes expressing cloned human SSTR5
Description: The receptor-ligand binding assays of all 5 subtype of SSTRs were performed with membranes isolated from Chinese hamster ovary (CHO)-K1 cells stably expressing the cloned human somatostatin receptors in 96-well format as previous reported.
The stable cell lines for SSTR1-SSTR5 were developed by stably transfecting with DNA for all five SSTRs using Lipofectamine. […] The assay buffer consisted of 50 mM TrisHCl (pH 7.8) with 1 mM EGTA, […] MgCl2, leupeptin (10 μg/mL), pepstatin (10 μg/mL), bacitracin (200 μg/mL), and aprotinin (0.5 μg/mL). CHO-K1 cell membranes, radiolabeled somatostatin, and unlabeled test compounds were resuspended or diluted in this assay buffer. Unlabeled test compounds were examined over a range of concentrations from 0.01 nM to 10,000 nM.
Compounds exemplified were tested in the SSTR5 binding assay.

SSTR5, sequence (P35346 whole entry): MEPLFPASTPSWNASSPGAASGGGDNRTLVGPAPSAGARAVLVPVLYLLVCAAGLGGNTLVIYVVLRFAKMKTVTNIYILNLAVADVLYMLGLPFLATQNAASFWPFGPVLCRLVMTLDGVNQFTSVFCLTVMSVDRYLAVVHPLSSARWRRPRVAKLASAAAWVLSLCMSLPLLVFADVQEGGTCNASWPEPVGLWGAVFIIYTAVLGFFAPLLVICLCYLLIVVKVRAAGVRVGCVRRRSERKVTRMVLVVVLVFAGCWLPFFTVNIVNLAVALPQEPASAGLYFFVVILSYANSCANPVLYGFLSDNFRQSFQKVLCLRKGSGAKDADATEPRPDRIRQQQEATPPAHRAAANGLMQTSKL

SMILES	IC50 [nM]
CCOc1ccc(-c2ccc(F)c(F)c2F)c(CN2CCC3(CC2)CN(c2ccc(C(=O)O)cc2)C(=O)O3)c1 [Example 4-5, 4-{8-[(4-Ethoxy-2′,3′,4′-trifluorobiphenyl-2-yl)methyl]-2-oxo-1-oxa-3,8-diazaspiro[4.5]dec-3-yl}benzoic acid, TFA salt]	0.556
COc1ccc2c(CN3CCC4(CC3)CN(c3ccc(C(=O)O)cc3)C(=O)O4)cn(-c3ccccc3)c2c1 [Example 6-23, 4-{8-[(6-Methoxy-1-phenyl-1H-indol-3-yl)methyl]-2-oxo-1-oxa-3,8-diazaspiro[4.5]dec-3-yl}benzoic acid, TFA salt]	9.06
CC(C)(C)c1nc(-c2cc(F)c(F)cc2F)c(CN2CCC3(CC2)CN(c2ccc(C(=O)O)cc2)C(=O)O3)s1 [Example 6-35, 4-(8-{[2-tert-Butyl-4-(2,4,5-trifluorophenyl)-1,3-thiazol-5-yl]methyl}-2-oxo-1-oxa-3,8-diazaspiro[4.5]dec-3-yl)benzoic acid, TFA salt]	1.74
CCOc1cc(CN2CCC3(CC2)CN(c2ccc(C(=O)O)c(C)c2)C(=O)O3)cc(OCC)c1-c1ccc(F)cc1 [Example 3-8, 4-{8-[(2,6-Diethoxy-4′-fluorobiphenyl-4-yl)methyl]-2-oxo-1-oxa-3,8-diazaspiro[4.5]dec-3-yl}-2-methylbenzoic acid, TFA salt]	1.42
O=C(O)c1ccc(N2CC3(CCN(Cc4cc(C(F)(F)F)ccc4-c4ccc(F)nc4)CC3)OC2=O)cc1 [Example 4-10, 4-{8-[2-(6-Fluoropyridin-3-yl)-5-(trifluoromethyl)benzyl]-2-oxo-1-oxa-3,8-diazaspiro[4.5]dec-3-yl}benzoic acid, TFA salt]	1.49
CCOc1cc(CN2CCC3(CC2)CN(c2ccc(C(=O)O)nc2)C(=O)O3)cc(OCC)c1-c1ccc(F)cc1 [Example 3-4, 5-{8-[(2,6-Diethoxy-4′-fluorobiphenyl-4-yl)methyl]-2-oxo-1-oxa-3,8-diazaspiro[4.5]dec-3-yl}pyridine-2-carboxylic acid, TFA salt]	1.4
O=C(O)c1ccc(N2CC3(CCN(Cc4nc(-c5ccccc5)oc4-c4ccccc4)CC3)OC2=O)cc1 [Example 6-34, 4-{8-[(2,5-Diphenyl-1,3-oxazol-4-yl)methyl]-2-oxo-1-oxa-3,8-diazaspiro[4.5]dec-3-yl}benzoic acid, TFA salt]	86
CCCn1nc(CN2CCC3(CC2)CN(c2ccc(C(=O)O)cc2)C(=O)O3)c2ccc(OC)cc21 [Example 6-3, 4-{8-[(6-Methoxy-1-propyl-1H-indazol-3-yl)methyl]-2-oxo-1-oxa-3,8-diazaspiro[4.5]dec-3-yl}benzoic acid, TFA salt]	156
CCOc1cc(CN2CCC3(C2)CN(c2ccc(C(=O)O)cc2)C(=O)O3)cc(OCC)c1-c1ccc(F)cc1 (stereo not drawn) [Example 2-16, 4-{7-[(2,6-Diethoxy-4′-fluorobiphenyl-4-yl)methyl]-2-oxo-1-oxa-3,7-diazaspiro[4.4]non-3-yl}benzoic acid, TFA salt]	5.63
CC(C)(C)n1cc(CN2CCC3(C2)CN(c2ccc(C(=O)O)cc2)C(=O)O3)c(-c2ccc(F)c(F)c2F)n1 (stereo not drawn) [Example 2-17, 4-(7-{[1-tert-Butyl-3-(2,3,4-trifluorophenyl)-1H-pyrazol-4-yl]methyl}-2-oxo-1-oxa-3,7-diazaspiro[4.4]non-3-yl)benzoic acid, TFA salt]	32.7
O=C(O)c1ccc(N2CC3(CCN(Cc4nn(Cc5ccc(Cl)cc5)cc4-c4ccc(F)c(F)c4F)CC3)OC2=O)cc1 [Example 2-3, 4-(8-{[1-(4-Chlorobenzyl)-4-(2,3,4-trifluorophenyl)-1H-pyrazol-3-yl]methyl}-2-oxo-1-oxa-3,8-diazaspiro[4.5]dec-3-yl)benzoic acid, TFA salt]	89.3
Cn1cc(-c2ccc(F)c(F)c2F)c(CN2CCC3(CC2)CN(c2ccc(C(=O)O)cc2)C(=O)O3)n1 [Example 2-1, 4-(8-{[1-Methyl-4-(2,3,4-trifluorophenyl)-1H-pyrazol-3-yl]methyl}-2-oxo-1-oxa-3,8-diazaspiro[4.5]dec-3-yl)benzoic acid, TFA salt]	2950
CC(C)(C)c1nn(-c2ccc(F)cc2)cc1CN1CCC2(CC1)CN(c1ccc(C(=O)O)cc1)C(=O)O2 [Example 1-35, 4-(8-{[3-tert-Butyl-1-(4-fluorophenyl)-1H-pyrazol-4-yl]methyl}-2-oxo-1-oxa-3,8-diazaspiro[4.5]dec-3-yl)benzoic acid, TFA salt]	36.2
COc1cc(CN2CCC3(CC2)CN(c2ccc(C(=O)O)cc2)C(=O)O3)cc2c(OC)cccc12 [Example 5-6, 4-{8-[(4,8-Dimethoxynaphthalen-2-yl)methyl]-2-oxo-1-oxa-3,8-diazaspiro[4.5]dec-3-yl}benzoic acid, TFA salt]	0.172
CC1(C)CC(C)(C)c2cc(CN3CCC4(CC3)CN(c3ccc(C(=O)O)cc3)C(=O)O4)ccc2O1 [Example 5-11, 4-{2-Oxo-8-[(2,2,4,4-tetramethyl-3,4-dihydro-2H-chromen-6-yl)methyl]-1-oxa-3,8-diazaspiro[4.5]dec-3-yl}benzoic acid, TFA salt]	14
CC(C)(C)n1cc(CN2CCCC3(CC2)CN(c2ccc(C(=O)O)cc2)C(=O)O3)c(-c2ccc(F)c(F)c2F)n1 (stereo not drawn) [Example 2-11, 4-(8-{[1-tert-Butyl-3-(2,3,4-trifluorophenyl)-1H-pyrazol-4-yl]methyl}-2-oxo-1-oxa-3,8-diazaspiro[4.6]undec-3-yl)benzoic acid, TFA salt]	207
CCOc1cc(CN2CCC3(CC2)CN(c2ccc(C(=O)O)cc2F)C(=O)O3)c(-c2ccc(F)c(F)c2F)cc1C [Example 4-21, 4-{8-[(4-Ethoxy-2′,3′,4′-trifluoro-5-methylbiphenyl-2-yl)methyl]-2-oxo-1-oxa-3,8-diazaspiro[4.5]dec-3-yl}-3-fluorobenzoic acid, TFA salt]	0.397
CC(C)n1nc(Cc2cc(F)c(F)cc2F)c(CN2CCC3(CC2)CN(c2ccc(C(=O)O)cc2)C(=O)O3)c1Cl [Example 1-45, 4-(8-{[5-Chloro-1-(propan-2-yl)-3-(2,4,5-trifluorobenzyl)-1H-pyrazol-4-yl]methyl}-2-oxo-1-oxa-3,8-diazaspiro[4.5]dec-3-yl)benzoic acid, TFA salt]	23
CC1(C)C2CCC(C2)C1n1cc(CN2CCC3(CC2)CN(c2ccc(C(=O)O)cc2)C(=O)O3)c(-c2ccc(F)c(F)c2F)n1 (stereo not drawn) [Example 1-25, 4-(8-{[1-(3,3-Dimethylbicyclo[2.2.1]hept-2-yl)-3-(2,3,4-trifluorophenyl)-1H-pyrazol-4-yl]methyl}-2-oxo-1-oxa-3,8-diazaspiro[4.5]dec-3-yl)benzoic acid, TFA salt]	0.74
CC(C)(C)n1cc(CN2CCC3(CC2)CN(c2ccc(-c4nn[nH]n4)cc2)C(=O)O3)c(-c2cc(F)c(Cl)cc2F)n1 [Example 1-29, 8-{[1-tert-Butyl-3-(4-chloro-2,5-difluorophenyl)-1H-pyrazol-4-yl]methyl}-3-[4-(2H-tetrazol-5-yl)phenyl]-1-oxa-3,8-diazaspiro[4.5]decan-2-one, TFA salt]	0.582
CCOc1cc(CN2CCC3(CC2)CN(c2ccc(C(=O)O)cc2)C(=O)O3)cc2c(OC)cc(Cl)cc12 [Example 5-5, 4-{8-[(6-Chloro-4-ethoxy-8-methoxynaphthalen-2-yl)methyl]-2-oxo-1-oxa-3,8-diazaspiro[4.5]dec-3-yl}benzoic acid, TFA salt]	0.65
